Data published in the kinase profiling compilation of Christmann-Franck et al. (2016).
“And” between values parts separate entries of the source, which are not always exact repeats. Identical values can stand only once.

Key:
Test in all cases: KINOMEscan competition binding
Conditions in all cases: compound 10.0 µM
MYLK (human) = MYLK (human) (UniProt Q15746)
PRKD2 (human) = PRKD2 (human) (UniProt Q9BZL6)
PRKAA2 (human) = PRKAA2 (human) (UniProt P54646)
TBK1 (human) = TBK1 (human) (UniProt Q9UHD2)
Chain of TBK1 (human) (Q9UHD2 whole entry, looked up): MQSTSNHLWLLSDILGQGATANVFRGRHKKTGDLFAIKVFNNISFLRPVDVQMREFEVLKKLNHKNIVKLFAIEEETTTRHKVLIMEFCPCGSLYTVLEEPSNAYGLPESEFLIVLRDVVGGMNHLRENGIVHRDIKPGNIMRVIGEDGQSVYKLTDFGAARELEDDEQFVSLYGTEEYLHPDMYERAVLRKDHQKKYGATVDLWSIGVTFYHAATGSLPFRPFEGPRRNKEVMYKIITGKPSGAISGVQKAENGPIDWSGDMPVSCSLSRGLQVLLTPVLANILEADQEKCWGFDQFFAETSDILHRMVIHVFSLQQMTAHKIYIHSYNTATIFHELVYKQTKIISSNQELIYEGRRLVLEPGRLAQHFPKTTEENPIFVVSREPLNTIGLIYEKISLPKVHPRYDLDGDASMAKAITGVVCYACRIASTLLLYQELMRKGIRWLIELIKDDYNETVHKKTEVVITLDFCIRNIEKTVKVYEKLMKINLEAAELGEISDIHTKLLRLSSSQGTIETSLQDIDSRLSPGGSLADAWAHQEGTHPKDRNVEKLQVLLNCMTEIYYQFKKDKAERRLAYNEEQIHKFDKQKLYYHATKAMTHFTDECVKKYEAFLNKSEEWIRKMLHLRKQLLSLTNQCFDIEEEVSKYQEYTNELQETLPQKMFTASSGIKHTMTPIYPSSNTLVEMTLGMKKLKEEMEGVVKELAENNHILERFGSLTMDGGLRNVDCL

TAOK2 (human) = TAOK2 (human) (UniProt Q9UL54)
PIM2 (human) = PIM2 (human) (UniProt Q9P1W9)
Chain of PIM2 (human) (Q9P1W9 whole entry, looked up): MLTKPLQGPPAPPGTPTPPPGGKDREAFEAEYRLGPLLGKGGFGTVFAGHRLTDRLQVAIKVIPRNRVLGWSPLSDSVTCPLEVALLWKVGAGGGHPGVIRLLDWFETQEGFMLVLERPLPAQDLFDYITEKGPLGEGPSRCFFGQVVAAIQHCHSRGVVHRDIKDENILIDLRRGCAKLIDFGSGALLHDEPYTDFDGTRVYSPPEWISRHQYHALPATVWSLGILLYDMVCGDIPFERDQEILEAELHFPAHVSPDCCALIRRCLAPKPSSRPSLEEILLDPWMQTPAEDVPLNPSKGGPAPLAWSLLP

HIPK2 (human) = HIPK2 (human) (UniProt Q9H2X6)
PIM1 (human) = PIM1 (human) (UniProt P11309)
TESK1 (human) = TESK1 (human) (UniProt Q15569)
ZAP70 (human) = ZAP70 (human) (UniProt P43403)
Chain of ZAP70 (human) (P43403 whole entry, looked up): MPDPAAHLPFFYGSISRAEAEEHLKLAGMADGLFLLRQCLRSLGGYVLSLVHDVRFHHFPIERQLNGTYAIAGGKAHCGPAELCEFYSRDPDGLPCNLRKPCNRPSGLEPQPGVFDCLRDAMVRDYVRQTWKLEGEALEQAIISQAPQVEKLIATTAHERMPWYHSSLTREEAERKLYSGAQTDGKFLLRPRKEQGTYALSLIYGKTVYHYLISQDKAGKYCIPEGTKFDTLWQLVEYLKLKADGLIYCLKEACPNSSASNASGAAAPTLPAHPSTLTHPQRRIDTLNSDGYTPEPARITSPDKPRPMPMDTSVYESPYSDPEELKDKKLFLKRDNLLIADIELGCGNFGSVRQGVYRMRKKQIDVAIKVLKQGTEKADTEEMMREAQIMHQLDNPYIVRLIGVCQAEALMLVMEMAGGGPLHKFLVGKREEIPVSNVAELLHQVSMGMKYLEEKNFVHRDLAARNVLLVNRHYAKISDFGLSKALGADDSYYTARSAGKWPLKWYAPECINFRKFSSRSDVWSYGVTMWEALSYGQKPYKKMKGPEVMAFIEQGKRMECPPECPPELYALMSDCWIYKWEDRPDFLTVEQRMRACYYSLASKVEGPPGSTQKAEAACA

MET (human) = MET (human) (UniProt P08581)
CSNK1G2 (human) = CSNK1G2 (human) (UniProt P78368)
MKNK2 (human) = MKNK2 (human) (UniProt Q9HBH9)
[1] = test system: LRRK2 (human), Q5S007 [G2019S]
Chain of LRRK2 (human), Q5S007 [G2019S] (Q5S007 whole entry G2019S, looked up): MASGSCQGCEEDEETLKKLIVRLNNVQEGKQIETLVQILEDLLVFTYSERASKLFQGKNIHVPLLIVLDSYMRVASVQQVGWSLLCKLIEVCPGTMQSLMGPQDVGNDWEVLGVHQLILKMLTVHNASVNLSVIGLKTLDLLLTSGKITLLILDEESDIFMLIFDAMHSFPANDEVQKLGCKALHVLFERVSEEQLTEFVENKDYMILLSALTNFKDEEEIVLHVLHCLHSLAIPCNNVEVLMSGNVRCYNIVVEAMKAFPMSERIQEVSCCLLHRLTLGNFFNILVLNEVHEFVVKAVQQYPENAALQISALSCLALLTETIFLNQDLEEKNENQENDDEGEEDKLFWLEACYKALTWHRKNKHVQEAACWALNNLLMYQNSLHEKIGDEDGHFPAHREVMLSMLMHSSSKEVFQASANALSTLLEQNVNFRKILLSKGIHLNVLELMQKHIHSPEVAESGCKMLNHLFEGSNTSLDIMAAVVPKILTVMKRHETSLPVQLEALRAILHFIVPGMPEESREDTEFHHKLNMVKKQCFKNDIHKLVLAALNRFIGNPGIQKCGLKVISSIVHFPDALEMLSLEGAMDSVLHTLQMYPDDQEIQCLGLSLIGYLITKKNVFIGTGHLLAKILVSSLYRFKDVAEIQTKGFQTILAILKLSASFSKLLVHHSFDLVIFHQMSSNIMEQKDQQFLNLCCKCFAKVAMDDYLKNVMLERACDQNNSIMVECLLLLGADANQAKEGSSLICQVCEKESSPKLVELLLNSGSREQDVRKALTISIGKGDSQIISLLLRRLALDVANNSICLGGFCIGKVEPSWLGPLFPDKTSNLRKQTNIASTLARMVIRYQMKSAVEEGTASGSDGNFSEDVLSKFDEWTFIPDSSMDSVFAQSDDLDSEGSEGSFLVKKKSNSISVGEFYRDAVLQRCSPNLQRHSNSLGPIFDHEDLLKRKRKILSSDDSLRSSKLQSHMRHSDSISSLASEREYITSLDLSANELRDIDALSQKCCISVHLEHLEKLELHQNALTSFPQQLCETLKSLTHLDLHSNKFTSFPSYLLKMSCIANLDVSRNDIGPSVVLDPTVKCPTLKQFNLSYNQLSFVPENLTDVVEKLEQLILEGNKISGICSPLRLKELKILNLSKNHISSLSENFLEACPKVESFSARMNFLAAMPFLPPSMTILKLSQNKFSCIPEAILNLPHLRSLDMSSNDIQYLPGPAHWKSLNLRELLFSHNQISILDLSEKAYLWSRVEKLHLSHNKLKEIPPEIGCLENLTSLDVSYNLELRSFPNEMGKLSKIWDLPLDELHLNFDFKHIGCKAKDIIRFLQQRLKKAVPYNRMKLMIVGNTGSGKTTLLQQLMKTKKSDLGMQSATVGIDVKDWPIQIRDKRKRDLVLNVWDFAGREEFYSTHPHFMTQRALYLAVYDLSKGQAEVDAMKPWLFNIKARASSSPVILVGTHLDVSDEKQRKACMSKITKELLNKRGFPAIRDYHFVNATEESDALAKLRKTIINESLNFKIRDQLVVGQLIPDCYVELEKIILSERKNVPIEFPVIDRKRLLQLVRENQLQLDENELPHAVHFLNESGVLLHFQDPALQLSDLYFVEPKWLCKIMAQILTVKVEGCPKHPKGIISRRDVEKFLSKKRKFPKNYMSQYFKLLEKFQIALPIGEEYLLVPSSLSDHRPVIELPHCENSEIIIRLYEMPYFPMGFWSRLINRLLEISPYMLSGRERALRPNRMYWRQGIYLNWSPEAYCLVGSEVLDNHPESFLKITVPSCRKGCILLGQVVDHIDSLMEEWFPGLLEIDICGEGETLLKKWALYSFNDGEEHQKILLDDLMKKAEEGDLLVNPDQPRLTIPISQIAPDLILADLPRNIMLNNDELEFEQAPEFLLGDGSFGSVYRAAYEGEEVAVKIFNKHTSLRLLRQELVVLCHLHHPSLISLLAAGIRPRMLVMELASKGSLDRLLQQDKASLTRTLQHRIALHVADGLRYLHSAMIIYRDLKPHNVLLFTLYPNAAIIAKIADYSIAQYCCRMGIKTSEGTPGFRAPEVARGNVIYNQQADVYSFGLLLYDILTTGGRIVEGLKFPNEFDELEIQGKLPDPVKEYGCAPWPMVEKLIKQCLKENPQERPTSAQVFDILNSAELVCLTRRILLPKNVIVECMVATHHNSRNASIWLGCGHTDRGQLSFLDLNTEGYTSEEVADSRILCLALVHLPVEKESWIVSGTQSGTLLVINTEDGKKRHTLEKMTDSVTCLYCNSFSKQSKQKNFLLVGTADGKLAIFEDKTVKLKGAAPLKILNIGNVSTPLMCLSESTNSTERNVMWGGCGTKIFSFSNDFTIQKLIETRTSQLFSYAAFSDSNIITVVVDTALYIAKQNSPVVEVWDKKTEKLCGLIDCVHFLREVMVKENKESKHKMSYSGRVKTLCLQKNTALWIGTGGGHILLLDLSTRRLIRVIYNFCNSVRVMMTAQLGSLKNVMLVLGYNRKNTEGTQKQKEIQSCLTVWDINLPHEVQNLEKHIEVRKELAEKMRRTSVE

CDC42BPG (human) = CDC42BPG (human) (UniProt Q6DT37)
PLK1 (human) = PLK1 (human) (UniProt P53350)
STK38L (human) = STK38L (human) (UniProt Q9Y2H1)
TTK (human) = TTK (human) (UniProt P33981)
Chain of TTK (human) (P33981 whole entry, looked up): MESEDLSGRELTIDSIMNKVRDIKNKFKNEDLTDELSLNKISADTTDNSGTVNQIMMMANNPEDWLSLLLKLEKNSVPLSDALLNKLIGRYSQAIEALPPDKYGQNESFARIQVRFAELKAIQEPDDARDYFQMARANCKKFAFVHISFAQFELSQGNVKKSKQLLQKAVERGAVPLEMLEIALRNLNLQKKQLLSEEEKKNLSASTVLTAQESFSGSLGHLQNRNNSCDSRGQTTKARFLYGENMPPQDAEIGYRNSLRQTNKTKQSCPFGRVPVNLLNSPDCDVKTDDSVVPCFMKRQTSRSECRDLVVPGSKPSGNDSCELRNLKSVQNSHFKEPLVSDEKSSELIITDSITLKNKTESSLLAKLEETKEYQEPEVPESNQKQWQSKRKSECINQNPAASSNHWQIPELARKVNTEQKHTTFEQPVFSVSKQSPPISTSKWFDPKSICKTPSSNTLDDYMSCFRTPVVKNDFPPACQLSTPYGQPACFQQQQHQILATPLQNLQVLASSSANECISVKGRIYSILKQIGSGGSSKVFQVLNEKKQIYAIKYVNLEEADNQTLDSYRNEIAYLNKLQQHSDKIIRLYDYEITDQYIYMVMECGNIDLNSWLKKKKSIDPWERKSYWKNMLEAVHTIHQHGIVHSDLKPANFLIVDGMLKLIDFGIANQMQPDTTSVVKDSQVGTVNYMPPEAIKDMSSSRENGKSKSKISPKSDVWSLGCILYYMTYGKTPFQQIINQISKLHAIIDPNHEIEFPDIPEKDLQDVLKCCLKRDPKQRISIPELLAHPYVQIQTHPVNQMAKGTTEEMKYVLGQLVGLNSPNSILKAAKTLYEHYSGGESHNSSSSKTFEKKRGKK

KIT (human) = KIT (human) (UniProt P10721)
EPHB1 (human) = EPHB1 (human) (UniProt P54762)
SIK3 (human) = SIK3 (human) (UniProt Q9Y2K2)
MAP2K2 (human) = MAP2K2 (human) (UniProt P36507)
AKT2 (human) = AKT2 (human) (UniProt P31751)
SYK (human) = SYK (human) (UniProt P43405)
STK36 (human) = STK36 (human) (UniProt Q9NRP7)
HCK (human) = HCK (human) (UniProt P08631)
PIK3CD (human) = PIK3CD (human) (UniProt O00329)
EPHB3 (human) = EPHB3 (human) (UniProt P54753)
MERTK (human) = MERTK (human) (UniProt Q12866)
PRKG2 (human) = PRKG2 (human) (UniProt Q13237)
FLT1 (human) = FLT1 (human) (UniProt P17948)
PIP5K1C (human) = PIP5K1C (human) (UniProt O60331)
RPS6KA2 KD2 (human) = RPS6KA2 KD2 (human) (UniProt Q15349)
CLK4 (human) = CLK4 (human) (UniProt Q9HAZ1)
TLK1 (human) = TLK1 (human) (UniProt Q9UKI8)
RET (human) = RET (human) (UniProt P07949)
CDK4 CCND1 (human) = CDK4 CCND1 (human) (UniProt P11802+P24385)
FGFR2 (human) = FGFR2 (human) (UniProt P21802)
SIK1 (human) = SIK1 (human) (UniProt P57059)
CDK7 (human) = CDK7 (human) (UniProt P50613)

| Compound | kinase still bound, per cent of control (MYLK (human)) [%] | kinase still bound, per cent of control (PRKD2 (human)) [%] | kinase still bound, per cent of control (PRKAA2 (human)) [%] | kinase still bound, per cent of control (TBK1 (human)) [%] | kinase still bound, per cent of control (TAOK2 (human)) [%] | kinase still bound, per cent of control (PIM2 (human)) [%] | kinase still bound, per cent of control (HIPK2 (human)) [%] | kinase still bound, per cent of control (PIM1 (human)) [%] | kinase still bound, per cent of control (TESK1 (human)) [%] | kinase still bound, per cent of control (ZAP70 (human)) [%] | kinase still bound, per cent of control (MET (human)) [%] | kinase still bound, per cent of control (CSNK1G2 (human)) [%] | kinase still bound, per cent of control (MKNK2 (human)) [%] | kinase still bound, per cent of control [1] [%] | kinase still bound, per cent of control (CDC42BPG (human)) [%] | kinase still bound, per cent of control (PLK1 (human)) [%] | kinase still bound, per cent of control (STK38L (human)) [%] | kinase still bound, per cent of control (TTK (human)) [%] | kinase still bound, per cent of control (KIT (human)) | kinase still bound, per cent of control (EPHB1 (human)) [%] | other results |
| --- | --- | --- | --- | --- | --- | --- | --- | --- | --- | --- | --- | --- | --- | --- | --- | --- | --- | --- | --- | --- | --- |
| O=c1[nH]c2ccccc2n1C1CCN(Cc2ccc(-c3nc4cc5[nH]cnc5cc4nc3-c3ccccc3)cc2)CC1 | 57 | 95 | 95 | 70 | 85 | 91 | 88 | 93 | 74 | 99 | 39 | 59 | 81 | 100 | 92 | 93 | 82 | 100 | 95% and 89% | 100 | kinase still bound, per cent of control (SIK3 (human)): 88%; kinase still bound, per cent of control (MAP2K2 (human)): 75%; kinase still bound, per cent of control (AKT2 (human)): 100%; kinase still bound, per cent of control (SYK (human)): 84%; kinase still bound, per cent of control (STK36 (human)): 74%; kinase still bound, per cent of control (HCK (human)): 90%; kinase still bound, per cent of control (PIK3CD (human)): 51%; kinase still bound, per cent of control (EPHB3 (human)): 100%; kinase still bound, per cent of control (MERTK (human)): 95%; kinase still bound, per cent of control (PRKG2 (human)): 91%; kinase still bound, per cent of control (FLT1 (human)): 89%; kinase still bound, per cent of control (PIP5K1C (human)): 29%; kinase still bound, per cent of control (RPS6KA2 KD2 (human)): 100%; kinase still bound, per cent of control (CLK4 (human)): 95%; kinase still bound, per cent of control (TLK1 (human)): 100%; kinase still bound, per cent of control (RET (human)): 76%; kinase still bound, per cent of control (CDK4 CCND1 (human)): 100%; kinase still bound, per cent of control (FGFR2 (human)): 100%; kinase still bound, per cent of control (SIK1 (human)): 100%; kinase still bound, per cent of control (CDK7 (human)): 82% |
| C=CC(=O)Nc1ccc(C(=O)c2sc(Nc3ccc(N4CCN(C)CC4)cc3OC)nc2N)cc1 | 8.6 | 70 | 100 | 100 | 20 | 100 | 40 | 90 | 100 | 20 | 83 | 25 | 29 | 1.5 | 93 | 45 | 68 | 0.7 | 78% | 98 | kinase still bound, per cent of control (SIK3 (human)): 95%; kinase still bound, per cent of control (MAP2K2 (human)): 89%; kinase still bound, per cent of control (AKT2 (human)): 100%; kinase still bound, per cent of control (SYK (human)): 100%; kinase still bound, per cent of control (STK36 (human)): 90%; kinase still bound, per cent of control (HCK (human)): 100%; kinase still bound, per cent of control (PIK3CD (human)): 100%; kinase still bound, per cent of control (EPHB3 (human)): 76%; kinase still bound, per cent of control (MERTK (human)): 100%; kinase still bound, per cent of control (PRKG2 (human)): 81%; kinase still bound, per cent of control (FLT1 (human)): 97%; kinase still bound, per cent of control (PIP5K1C (human)): 44%; kinase still bound, per cent of control (RPS6KA2 KD2 (human)): 0.25%; kinase still bound, per cent of control (CLK4 (human)): 1.6%; kinase still bound, per cent of control (TLK1 (human)): 69%; kinase still bound, per cent of control (RET (human)): 100%; kinase still bound, per cent of control (CDK4 CCND1 (human)): 10%; kinase still bound, per cent of control (FGFR2 (human)): 49%; kinase still bound, per cent of control (SIK1 (human)): 83%; kinase still bound, per cent of control (CDK7 (human)): 5.8% |
| N#Cc1cc(-c2ccnc(Nc3ccc(-n4cnc(-c5cccnc5)n4)cc3)n2)cc(N2CCOCC2)c1 | 100 | 93 | 94 | 35 | 37 | 100 | 6.2 | 78 | 54 | 70 | 24 | 72 | 34 | 53 | 63 | 99 | 100 | 73 | 0.65% | 90 | kinase still bound, per cent of control (SIK3 (human)): 100%; kinase still bound, per cent of control (MAP2K2 (human)): 62%; kinase still bound, per cent of control (AKT2 (human)): 100%; kinase still bound, per cent of control (SYK (human)): 25%; kinase still bound, per cent of control (STK36 (human)): 15%; kinase still bound, per cent of control (HCK (human)): 100%; kinase still bound, per cent of control (PIK3CD (human)): 100%; kinase still bound, per cent of control (EPHB3 (human)): 88%; kinase still bound, per cent of control (MERTK (human)): 57%; kinase still bound, per cent of control (PRKG2 (human)): 74%; kinase still bound, per cent of control (FLT1 (human)): 48%; kinase still bound, per cent of control (PIP5K1C (human)): 100%; kinase still bound, per cent of control (RPS6KA2 KD2 (human)): 75%; kinase still bound, per cent of control (CLK4 (human)): 7.2%; kinase still bound, per cent of control (TLK1 (human)): 39%; kinase still bound, per cent of control (RET (human)): 100%; kinase still bound, per cent of control (CDK4 CCND1 (human)): 100%; kinase still bound, per cent of control (FGFR2 (human)): 91%; kinase still bound, per cent of control (SIK1 (human)): 73%; kinase still bound, per cent of control (CDK7 (human)): 1.2% |
